# Test results as given in patent US20260092086A1, “ANTIMICROBIAL LASSO PEPTIDES” (priority 2022, published 2026).
# “Also recorded” adds a separate entry of the source. Where a SMILES comes first, the peptide text is derived from it.
# Columns and labels:
# [1] = test system: Enterobacter kobei MGH178; type: cell-based
# Procedure: (§1) Cloacaenodin was evaluated against several common laboratory strains as well as commercially acquired strains using a spot-on-lawn assay.^45 Strains were streaked out onto LB agar plates and incubated overnight at their recommended temperatures. A single colony was then used to inoculate an overnight culture in 5 mL of LB broth. After shaking at 250 rpm at the recommended temperature for each strain, 50 μL of the overnight culture was used to inoculate 5 mL of LB broth (volume ratio 1:100). These cultures were grown for a few hours until they reached the exponential phase (OD600˜0.4-0.6) before being added to 10 mL of soft M63 agar at a final cell density of 10^7 CFUs/mL, or 10^8 CFUs total in 10 mL. The M63 soft agar was composed of 2 g/L of (NH4)2SO4 (EMD MilliporeSigma), 13.6 g/L of KH2PO4 (Fisher), 40 mg/L of each of the 20 common amino acids, 0.2% glucose (Sigma), 0.00005% w/v thiamine hydrochloride (Sigma), and 0.65% w/v bacteriological-grade agar (Apex Bioresearch). […] Upon solidification, 10 μL of purified cloacaenodin in water at two-fold dilutions were then spotted onto the agar and allowed to dry. The plates were incubated overnight at the strains' recommended temperatures and analyzed the next morning for activity. The MIC is defined as the last dilution where a spot was visible.
# (§2) Twelve (12) clinical isolates were tested at the Broad Institute of MIT and Harvard, with a subset of strains from BioProject PRJNA292902, BioProject PRJNA271899, BioProject PRJNA201976, and BioProject 219285. The strains were tested following the same spot-on-lawn assay protocol described above, but with BD Bacto Agar used instead. All cloacaenodin-treated isolates were incubated at 37° C. overnight, and the assay was repeated at least three times (on biological replicates) for each of the twelve (12) strains. We defined a strain to be susceptible if it was reliably susceptible in at least three biological replicates.
# [2] = test system: Enterobacter asburiae UCI193; type: cell-based
# Procedure: as §1, §2
# [3] = test system: Enterobacter cloacae UCI102; type: cell-based
# Procedure: as §1, §2
# [4] = test system: Enterobacter hormaechei UCI35; type: cell-based
# Procedure: as §1, §2
# [5] = test system: Enterobacter asburiae MGH243; type: cell-based
# Procedure: as §1, §2
# [6] = test system: Enterobacter nimipressuralis DSM 18955; type: cell-based
# Enterobacter cloacae = assay: Microscopy of cells treated with sub-MIC cloacaenodin; type: cell-based; conditions: sub-MIC cloacaenodin (230 nM), 16 hours in M63 media
# Procedure: After a 96-well plate of E. cloacae grew for 16 hours at 30° C. with varying concentrations of cloacaenodin in M63 media, samples were imaged using a Zeiss Observer Z1 automated inverted microscope with a cage incubator kept at 37° C. The microscope was used with a 100× Zeiss chroma objective with oil immersion and 35 ms exposure transmitted light and controlled using SlideBook software. Images were viewed using the software ImageJ.
# E. coli MG1655 = assay: Spot-on-lawn assay in M63 agar; type: cell-based, Escherichia coli; conditions: purified cloacaenodin in water
# Procedure: as §1
# [7] = test system: Klebsiella aerogenes ATCC 13048; assay: Spot-on-lawn assay in M63 agar; type: cell-based; conditions: purified cloacaenodin in water
# Procedure: as §1
# [8] = test system: Enterobacter nimipressuralis DSM 18955; assay: Spot-on-lawn assay in M63 agar; type: cell-based
# Procedure: as §1
# [9] = test system: Salmonella enterica serovar Newport; assay: Spot-on-lawn assay in M63 agar; type: cell-based; conditions: purified cloacaenodin in water
# Procedure: as §1
# Thermolysin = target: T1, Thermolysin (Geobacillus stearothermophilus, UniProt P43133); assay: Protease digestion, thermolysin; type: in vitro ADME; conditions: 50 μM peptide, 30° C., about 1 hour, LC-MS
# T1 construct: purchased Sigma-Aldrich
# Procedure: Thermolysin from Geobacillus stearothermophilus (Sigma-Aldrich) was first resuspended in 50 mM Tris, 0.5 mM CaCl2). The enzyme was then added to 50 μM peptide samples at a final concentration of about 0.04 mg/mL in a buffer of 50 mM Tris, 0.5 mM CaCl2), pH 8. The reactions were then allowed to incubate at 30° C. for about 1 hour before quenching with 1% formic acid. An aliquot was then injected onto LC-MS for analysis.
# [10] = test system: Enterobacter ludwigii MGH216; assay: Spot-on-lawn assay in M63 agar, clinical isolate; type: cell-based; conditions: reliably susceptible in at least three biological replicates
# Procedure: as §1, with “visible. […]” for “visible.”
# Elastase = target: T2, Elastase (Sus scrofa, UniProt P00772); assay: Protease digestion, elastase; type: in vitro ADME; conditions: 50 μM peptide, 25° C., about 1 hour, LC-MS
# T2 construct: purchased Promega
# Procedure: Elastase (Promega) was resuspended in 50 mM Tris pH 9.0. The enzyme was added to 50 μM peptide samples at a final enzyme concentration of about 0.04 mg/mL in a buffer of 50 mM Tris, pH 9. The reactions were then allowed to incubate at 25° C. for about 1 hour before quenching with 1% formic acid. An aliquot was then injected into LC-MS for analysis.
# [11] = test system: Enterobacter ludwigii MGH216; type: cell-based
# Kluyvera strain = assay: Spot-on-lawn assay, CDC & FDA Antibiotic Resistance Isolate Bank panels; type: cell-based; conditions: carbapenem-resistant CRE/BIT panel strain, M63 agar
# Text: (§3) FIG. 42. Spot-on-lawn assays of tested clinical isolates treated with cloacaenodin in M63 agar. From the initial concentration shown to the left of the curved arrow and in the direction of the curved arrow, two-fold serial dilutions of cloacaenodin were spotted. The straight arrows point to the last visible spot on the plate which corresponds to the recorded minimal inhibitory concentration (MIC). Spot 8 is pure water in all plates. AR Bank #0132, AR Bank #0136, AR Bank #0144, and AR Bank #0154 are from the CRE panel. AR Bank #0001 and AR Bank #0002 are from the BIT panel.
# (§4) Two panels from the CDC & FDA Antibiotic Resistance Isolate Bank were used: the Enterobacterales Carbapenemase Diversity (CRE) panel and the Enterobacterales Carbapenem Breakpoint (BIT) panel.^81 These panels represent strains with resistance to carbapenems, which are last resort antibiotics: there is an urgent need of new treatments of infections with these strains.
# (§5) We tested 6 strains: 4 Enterobacter strains, 1 Kluyvera strain, and 1 Escherichia coli strain.
# Enterobacter strains = assay: as above; type: cell-based; conditions: three of the four Enterobacter strains of the CRE/BIT panels, M63 agar
# Text: as §3, §4, §5
# [12] = listed as Threaded cloacaenodin
# [13] = listed as threaded cloacaenodin
# T2 sequence (P00772 27-266): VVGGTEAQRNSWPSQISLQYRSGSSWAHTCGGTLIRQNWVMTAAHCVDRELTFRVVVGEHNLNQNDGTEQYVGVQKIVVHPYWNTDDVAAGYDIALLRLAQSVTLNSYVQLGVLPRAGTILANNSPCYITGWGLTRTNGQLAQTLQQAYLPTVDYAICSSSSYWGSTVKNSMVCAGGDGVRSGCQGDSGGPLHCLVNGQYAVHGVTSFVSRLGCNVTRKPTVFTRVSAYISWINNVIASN
# T1 sequence (P43133 236-551): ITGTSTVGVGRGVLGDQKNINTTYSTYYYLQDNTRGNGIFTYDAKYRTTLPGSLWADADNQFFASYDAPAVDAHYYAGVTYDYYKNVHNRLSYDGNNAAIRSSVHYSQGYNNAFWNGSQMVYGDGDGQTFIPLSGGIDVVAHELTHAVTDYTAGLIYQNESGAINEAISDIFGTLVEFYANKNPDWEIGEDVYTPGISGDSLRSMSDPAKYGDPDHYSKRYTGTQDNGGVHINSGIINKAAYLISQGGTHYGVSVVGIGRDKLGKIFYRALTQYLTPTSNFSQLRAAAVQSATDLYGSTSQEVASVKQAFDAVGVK
smiles,measurement,setting,value
"CC[C@H](C)[C@@H]1NC(=O)[C@H](CCCNC(=N)N)NC(=O)[C@H](CC(=O)O)NC(=O)[C@H](C(C)C)NC(=O)[C@H](CO)NC(=O)[C@H](Cc2c[nH]cn2)NC(=O)CNC(=O)CC[C@@H](C(=O)N[C@@H](Cc2ccc(O)cc2)C(=O)N[C@@H](Cc2ccccc2)C(=O)NCC(=O)N2CCC[C@H]2C(=O)N2CCC[C@H]2C(=O)NCC(=O)N[C@@H](CC(C)C)C(=O)N2CCC[C@H]2C(=O)NCC(=O)N2CCC[C@H]2C(=O)N[C@H](C(=O)N[C@@H](CC(C)C)C(=O)N[C@@H](Cc2ccccc2)C(=O)N[C@@H](Cc2ccc(O)cc2)C(=O)N[C@@H](CO)C(=O)O)C(C)C)NC(=O)[C@@H]2CCCN2C1=O [cloacaenodin] (HELM PEPTIDE1{G.H.S.V.D.R.I.P.E.Y.F.G.P.P.G.L.P.G.P.V.L.F.Y.S}$PEPTIDE1,PEPTIDE1,1:R1-9:R3$$$V2.0; C-terminus assumed)",MIC in M63 media,[1],1 µM
same,MIC in M63 media,[2],2 µM
same,strain susceptible to cloacaenodin,"[2]; clinical strain UCI193, reliably susceptible in at least three biological replicates",* UCI193
same,MIC in M63 media,[3],500 nM
same,MIC in M63 media,[4],1 µM
same,MIC in M63 media,[5],2 µM
same,MIC in M63 media,[6],940 nM
same,filamentation phenotype,Enterobacter cloacae,degree of filamentation; also recorded: filamentation phenotype
same,antimicrobial activity (zones of inhibition),E. coli MG1655,no observed activity
same,antimicrobial activity (zones of inhibition),[7],no observed activity
same,strain susceptible to cloacaenodin,[8]; Lelliottia nimipressuralis DSM 18955,* Lelliottia nimipressuralis
same,antimicrobial activity (zones of inhibition),"[8]; spot-on-lawn, M63 agar, purified cloacaenodin in water",zones of inhibition in the low micromolar range
same,antimicrobial activity (zones of inhibition),[9],no observed activity
same,proteolysis by thermolysin,Thermolysin; [12],resistant to thermolysin digestion
same,proteolysis by thermolysin,Thermolysin; [13],remained resistant to proteolysis
same,strain susceptible to cloacaenodin,[10],* MGH216
same,proteolysis by elastase,Elastase; [12],resistant to elastase digestion
same,proteolysis by elastase,Elastase; [13],remained resistant to proteolysis
same,MIC in M63 media,[11],230 nM
same,antimicrobial activity,Kluyvera strain,single digit micromolar
same,antimicrobial activity,Enterobacter strains,single digit micromolar
